# Laboratory results taken from patent US4670540A, “Novel peptide” (Ajinomoto Co., Inc., priority 1984, dated 1987).
# Legend:
# rat aortic strips = experiment: Spasmolytic activity in rat aortic strips; format: cell-based; conditions: aortic strips contracted with norepinephrine (5×10^-8 M); specific activity, α-hANP[1-28] = 100; mean ± standard error, number of experiments in parentheses
# Protocol: (1) Spasmolytic activity in rat aortic strips. Male Sprague-Dawley rats weighing 250-280 g were used. After the rats were decapitated, their thoracic aorta were obtained and aortic helical strips were prepared. Krebs solution was used in this assay system. The aortic strips were suspended in a 20 ml organ-bath which was aerated with 5% carbon dioxide and 95% oxygen and kept at 37° ±0.5° C. The aortic tension was recorded isotonically. The isotonic recording system, consisted of a transducer and amplifier (ME commercial ME4012) and a recorder (Sanei 8K21). A resting tension of 0.5 g was loaded on the aortic strips. The prepared strips were left under the described conditions for 1 hour to obtain the stable tension. The aortic preparation contracted with norepinephrine (5×10^-8 M) was exposed to ANP to examine its relaxant activity. The dose response curve was obtained for the α-hANP(1-28) and the ANP fragment in the same preparation. The 50% effective dose (ED50) for each preparation was obtained and the ratio was used as the specific activity.
# chick rectum = experiment: Spasmolytic activity in chick rectum; format: cell-based; conditions: rectum contracted with carbachol (2×10^-7 M); specific activity, α-hANP[1-28] = 100; mean ± standard error, number of experiments in parentheses
# Protocol: (2) Spasmolytic activity in chick rectum. Male, 2- to 3-week-old chicks weighing 155-175 g were used. After the chicks were anesthetized with pentobarbital (6 mg/kg, ip), their rectums were excised. Krebs solution was used. The rectums were suspended in 20 ml organ-bath aerated with 5% carbon dioxide and 95% oxygen and kept at 37° ±0.5° C. Contractile tension of the rectum was determined isotonically. The isotonic recording system used was the same as that used in testing the rat aortic preparations. The rectal preparations were stabilized by keeping them under 0.5 g of tension conditions for 1 hour. The rectal preparations contracted with carbachol (2×10^-7 M),were exposed to ANP to examine its relaxing effect. As with the rat aortic preparations, ED50 for the standard α-haNP(1-28) and for the ANP fragment were determined, and the specific activity were calculated.
Molecule,Spasmolytic Activity in Rat Aorta (ratio of ED50 to the standard hANP (1-28)) (rat aortic strips),Spasmolytic Activity in Chick Rectum (ratio of ED50 to the standard hANP (1-28)) (chick rectum)
"CC[C@H](C)[C@@H]1NC(=O)[C@H](CCCNC(=N)N)NC(=O)[C@H](CC(=O)O)NC(=O)[C@H](CCSC)NC(=O)[C@H](CCCNC(=N)N)NC(=O)CNC(=O)CNC(=O)[C@H](Cc2ccccc2)NC(=O)[C@@H](NC(=O)[C@H](CO)NC(=O)[C@H](CO)NC(=O)[C@H](CCCNC(=N)N)NC(=O)[C@H](CCCNC(=N)N)NC(=O)[C@H](CC(C)C)NC(=O)[C@@H](N)CO)CSSC[C@@H](C(=O)N[C@@H](CC(N)=O)C(=O)N[C@@H](CO)C(=O)N[C@@H](Cc2ccccc2)C(=O)N[C@@H](CCCNC(=N)N)C(=O)N[C@@H](Cc2ccc(O)cc2)C(=O)O)NC(=O)CNC(=O)[C@H](CC(C)C)NC(=O)CNC(=O)[C@H](CO)NC(=O)[C@H](CCC(N)=O)NC(=O)[C@H](C)NC(=O)CNC1=O [α-hANP[1-28], α-human atrial natriuretic peptide]",100,100
(Nle^12)α-hANP(1-28) [[Nle^12]-α-hANP[1-28]],80.5 ± 12.2,70.3 ± 10.9
